Consider one substance from patent publication US8822206B2, “Device for high-throughput stimulation, immunostaining, and visualization of single cells” (The Johns Hopkins University, priority 2005, dated 2014).

In the assay the test system is NIH3T3 mouse fibroblasts. Kind of assay: Cell stimulation and anti-p65 immunofluorescence staining in the microfluidic device. The class given is cell-based. The conditions noted are these: NIH3T3 mouse fibroblasts in device and on control slides; 10 ng/ml mouse TNF-alpha in media, 10 minutes stimulation. The text has this: The device was fabricated as described in Example 1. The device was filled with sterile 0.1% gelatin with all of the valves open through an inlet port 11 to coat the parallel fluid channels to promote cell adhesion. Valves were primed with filtered, distilled water. Alternatively, filling may be done with the ports closed as trapped air can be pushed out of the gas-permeable PDMS with hydrostatic pressure. The device was flushed with […] the coating agent. Well-separated NIH3T3 mouse fibroblasts at a concentration of about 9 million cells per ml were introduced into the parallel fluid channels through an inlet port and the device was transferred to a standard 5% CO2, 37° C. cell culture incubator for 3-4 hours to allow the cells to adhere to the glass bottom of the parallel fluid channels.
Using the multiplexer to control flow through the reaction units, a selection of valves were closed to allow for exposure of only a portion of the cells to a stimulant. A syringe containing a solution of 10 ng/ml of mouse TNF-alpha in media was attached to an inlet port, and cells were stimulated, or not, for 10 minutes. […] After secondary antibody staining and washing with DPBS, cells were overlaid with mounting media or other antifade agent to minimize photobleaching, and imaged using fluorescence microscopy. […]

On to TNF-alpha, for which the “localization of p65 (anti-p65 immunofluorescence)” value is reported as “localization of p65 to the nucleus”.
